Measurements: patent publication US9890147B2 (BAYER PHARMA AKTIENGESELLSCHAFT, priority 2012, dated 2018)

Assays:
BRD4 (BD1) = molecular target: T1, BRD4 (BD1) (Homo sapiens, UniProt O60885); assay: Binding assay BRD4/acetylated peptide H4 (TR-FRET protein-protein interaction assay)
T1 construct: with relatively long constructs also being possible, preferably amino acids 44-168; made in house; host or cells: E. coli
Outline: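 Displacement of biotin-Ac-H4 peptide from His6-tagged BRD4(BD1), final usually 10 nM, read as Eu-streptavidin to anti-His-XL665 TR-FRET (665/620 nm). Compounds tested at 11 doses up to 20 μM in duplicate, pH 7.5 HEPES, 22 °C then 4 °C incubation; IC50 by 4-parameter regression.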

MOLM-13 cells = assay: Cell proliferation assay (alamarBlue), MOLM-13; format: cell-based; settings: Homo sapiens, 96 hours incubation, inhibition of cell proliferation
Outline: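 IC50 = concentration giving 50% growth inhibition relative to buffer-treated cells, after subtracting baseline fluorescence taken before dosing. Compound applied at 1E-5 to 1E-8 M for 96 h at 37 °C in RPMI1640 with 10% FCS; alamarBlue signal at 530/590 nm.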

LAPC-4 cells = assay: Cell proliferation assay (alamarBlue), LAPC-4; format: cell-based; settings: Homo sapiens, LAPC4; inhibition of cell proliferation, LAPC-4 (prostate cancer), 1 nM methyltrienolone, 168 hours
Experimental: (§1) In accordance with the invention, the capability of the substances to inhibit cell proliferation was determined Cell viability was determined using the alamarBlue® reagent (Invitrogen) in a Victor X3 Multilabel Reader (Perkin Elmer). The excitation wavelength was 530 nm and the emission wavelenth […].
The LAPC-4 cells (ATCC, PTA-1441TM) were sown at a concentration of 4000 cells/well in 100 μl growth medium (RPMI1640, 2 mM L-glutamine, 10% cFCS) on 96-well microtitre plates. A day later, the LAPC-4 cells were treated with 1 nM methyltrienolone and various substance dilutions.
(§2) After an overnight incubation at 37° C., the fluorescence values (CI values) were determined. The plates were then treated with various substance dilutions (1E-5 M, 3E-6 M, 1E-6M, 3E-7 M, 1E-7 M, 3E-8 M, 1E-8 M) and incubated at 37° C. for 72 (MV4-11-, LOX-IMVI cells), 96 (MOLM-13-, B16F10-, MDA-MB-431-, Caov-3 cells), 120 (MOLP-8-, KMS-12-PE cells) or 168 (LAPC-4 cells) hours. The fluorescence values (CO values) were then determined. For the data analysis, the CI values were subtracted from the CO values and the results were compared between cells treated with different dilutions of the substance or with buffer solution only. These were used to calculate the IC 50 values (substance concentration required for 50% inhibition of cell proliferation).

MDA-MB-231 cells = assay: Cell proliferation assay (alamarBlue), MDA-MB-231; format: cell-based; settings: Homo sapiens; inhibition of cell proliferation, MDA-MB-231 (breast carcinoma), 96 hours
Experimental: as §1
(§3) The MDA-MB-231 cells (DSMZ, ACC 732) were sown at a concentration of 4000 cells/well in 100 μl growth medium (DMEM/Ham's F12 medium, 10% FCS) on 96-well microtitre plates. The Caov-3 cells (ATCC, HTB-75) were sown at a concentration of 2000 cells/well in 100 μl growth medium (MEM Earle's medium, 10% FCS) on 96-well microtitre plates.
as §2

MV4-11 cells = assay: Cell proliferation assay (alamarBlue), MV4-11; format: cell-based; settings: Homo sapiens, 72 hours incubation, inhibition of cell proliferation
Outline: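 Cells seeded at 5000/well in RPMI1640 + 10% FCS, incubated overnight at 37° C, then treated with compound (1E-5 to 1E-8 M) for 72 h at 37° C. Viability by alamarBlue fluorescence (ex 530/em 590 nm); pre-treatment readings subtracted, IC50 derived versus buffer-treated cells.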

LOX-IMVI cells = assay: Cell proliferation assay (alamarBlue), LOX-IMVI; format: cell-based; settings: Homo sapiens, 72 hours incubation, inhibition of cell proliferation
Outline: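 alamarBlue fluorescence (530 nm excitation, 590 nm emission) measured before dosing and after 72 h at 37° C exposure to 1E-5–1E-8 M compound; 1000 cells/well plated in RPMI1640/10% FCS the night before. IC50 from baseline-corrected signal relative to buffer-treated wells.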

MOLP-8 cells = assay: Cell proliferation assay (alamarBlue), MOLP-8; format: cell-based; settings: Homo sapiens, 120 hours incubation, inhibition of cell proliferation
Outline: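 MOLP-8 cells in RPMI1640 with 20% FCS, 4000 cells/well, treated overnight after seeding with substance at 1E-5 to 1E-8 M for 120 h at 37° C. Viability read by alamarBlue fluorescence (ex 530, em 590); pre-treatment values subtracted, compared with buffer-only cells to derive IC50.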

KMS-12-PE cells = assay: Cell proliferation assay (alamarBlue), KMS-12-PE; format: cell-based; settings: Homo sapiens, 120 hours incubation, inhibition of cell proliferation
Outline: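 KMS-12-PE myeloma cells in RPMI1640 with 20% FCS were exposed to compound (1E-5 to 1E-8 M) for 120 h at 37° C. AlamarBlue fluorescence (ex 530, em 590 nm) read before and after treatment; the difference versus buffer-treated cells gave IC50.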

Caov-3 cells = assay: Cell proliferation assay (alamarBlue), Caov-3; format: cell-based; settings: Homo sapiens; inhibition of cell proliferation, Caov-3 (ovarian carcinoma), 96 hours
Experimental: as §1, §3, §2

B16F10 cells = assay: Cell proliferation assay (alamarBlue), B16F10; format: cell-based; settings: Mus musculus, B16-F10, 96 hours incubation, inhibition of cell proliferation
Experimental: as §1
The B16F10 cells (ATCC, CRL-6475) were sown at a concentration of 300-500 cells/well in 100 μl growth medium (DMEM with phenol red, 10% FCS) on 96-well microtitre plates.
as §2

## CNC(=O)N1N=C(c2ccc(-c3ccn[nH]3)cc2)c2cc(OC)ccc2C[C@@H]1C [Example 23, (4S)-8-methoxy-N,4-dimethyl-1-[4-(1H-pyrazol-5-yl)phenyl]-4,5-dihydro-3H-2,3-benzodiazepine-3-carboxamide]
BRD4 (BD1)
  IC50: 0.09 µM
MOLM-13 cells
  IC50: 0.27 µM
LAPC-4 cells
  IC50: 0.19 µM

## CNC(=O)N1N=C(c2ccc(-n3nc(C)cc3COC)cc2)c2cc(OC)ccc2C[C@@H]1C [Example 27, (4S)-8-methoxy-1-{4-[5-(methoxymethyl)-3-methyl-1H-pyrazol-1-yl]phenyl}-N,4-dimethyl-4,5-dihydro-3H-2,3-benzodiazepine-3-carboxamide]
BRD4 (BD1)
  IC50: 0.03 µM
MOLM-13 cells
  IC50: 0.63 µM
LAPC-4 cells
  IC50: 0.18 µM

## CNC(=O)N1N=C(c2ccc(Cl)cc2)c2cc(OC(F)(F)F)c(Cl)cc2CC1C (racemic) [Example 15]
BRD4 (BD1)
  IC50: 0.87 µM
MOLM-13 cells
  IC50: 3.45 µM
MDA-MB-231 cells
  IC50: 6.23 µM

## CNC(=O)N1N=C(c2ccc(-c3c(C)noc3C)cc2)c2cc(OC)ccc2C[C@@H]1C [Example 20, (4S)-1-[4-(3,5-dimethyl-4-isoxazolyl)phenyl]-8-methoxy-N,4-dimethyl-4,5-dihydro-3H-2,3-benzodiazepine-3-carboxamide]
BRD4 (BD1)
  IC50: 0.07 µM
MOLM-13 cells
  IC50: 0.19 µM
MV4-11 cells
  IC50: 0.14 µM
LOX-IMVI cells
  IC50: 0.33 µM
MOLP-8 cells
  IC50: 0.12 µM
KMS-12-PE cells
  IC50: 0.11 µM
LAPC-4 cells
  IC50: 0.12 µM
MDA-MB-231 cells
  IC50: 0.22 µM
Caov-3 cells
  IC50: 0.24 µM

## CNC(=O)N1N=C(c2ccc(-c3ccnn3C)cc2)c2cc(OC)ccc2C[C@@H]1C [Example 19, (4S)-8-methoxy-N,4-dimethyl-1-[4-(1-methyl-1H-pyrazol-5-yl)phenyl]-4,5-dihydro-3H-2,3-benzodiazepine-3-carboxamide]
BRD4 (BD1)
  IC50: 0.04 µM
MOLM-13 cells
  IC50: 0.17 µM
MV4-11 cells
  IC50: 0.27 µM
LOX-IMVI cells
  IC50: 0.65 µM
MOLP-8 cells
  IC50: 0.27 µM
KMS-12-PE cells
  IC50: 0.27 µM
LAPC-4 cells
  IC50: 0.11 µM
Caov-3 cells
  IC50: 0.41 µM

## CNC(=O)C1CCN(c2ccc(C3=NN(C(=O)NC)[C@@H](C)Cc4cc(OC)c(OC)cc43)cc2)CC1 [Example 189.1, (4S)-7,8-dimethoxy-N,4-dimethyl-1-{4-[4-(methylcarbamoyl)piperidin-1-yl]phenyl}-4,5-dihydro-3H-2,3-benzodiazepine-3-carboxamide]
BRD4 (BD1)
  IC50: 0.04 µM
MOLM-13 cells
  IC50: 0.21 µM
B16F10 cells
  IC50: 0.1 µM
MOLP-8 cells
  IC50: 0.08 µM

## CNC(=O)N1N=C(c2ccc(-n3nc(COC)cc3C)cc2)c2cc(OC)ccc2C[C@@H]1C [Example 26, (4S)-8-methoxy-1-{4-[3-(methoxymethyl)-5-methyl-1H-pyrazol-1-yl]phenyl}-N,4-dimethyl-4,5-dihydro-3H-2,3-benzodiazepine-3-carboxamide]
BRD4 (BD1)
  IC50: 0.04 µM
MOLM-13 cells
  IC50: 0.43 µM
LAPC-4 cells
  IC50: 0.13 µM

## CNC(=O)N1N=C(c2ccc(N3CCN(C)CC3)cc2)c2cc(OC(F)(F)F)ccc2C[C@@H]1C [Example 250.2, (4S)-N,4-dimethyl-1-[4-(4-methyl-1-piperazinyl)phenyl]-8-(trifluoromethoxy)-4,5-dihydro-3H-2,3-benzodiazepine-3-carboxamide]
BRD4 (BD1)
  IC50: 0.02 µM
MOLM-13 cells
  IC50: 0.05 µM
B16F10 cells
  IC50: 0.04 µM

## CNC(=O)N1N=C(c2ccc(-c3cnoc3)cc2)c2cc(OC)ccc2C[C@@H]1C [Example 18, (4S)-1-[4-(4-Isoxazolyl)phenyl]-8-methoxy-N,4-dimethyl-4,5-dihydro-3H-2,3-benzodiazepine-3-carboxamide]
BRD4 (BD1)
  IC50: 0.16 µM
MOLM-13 cells
  IC50: 0.25 µM
MV4-11 cells
  IC50: 0.3 µM
LOX-IMVI cells
  IC50: 0.76 µM
MOLP-8 cells
  IC50: 0.34 µM
KMS-12-PE cells
  IC50: 0.35 µM
MDA-MB-231 cells
  IC50: 0.28 µM
Caov-3 cells
  IC50: 0.48 µM

## CNC(=O)N1N=C(c2ccc(Cl)cc2)c2cc(N3CCOCC3)ccc2C[C@@H]1C [Example 11.1, (4S)-1-(4-Chlorophenyl)-N,4-dimethyl-8-(morpholin-4-yl)-4,5-dihydro-3H-2,3-benzodiazepine-3-carboxamide]
BRD4 (BD1)
  IC50: 0.08 µM
MOLM-13 cells
  IC50: 0.57 µM
LAPC-4 cells
  IC50: 0.31 µM
MDA-MB-231 cells
  IC50: 1.11 µM

## CNC(=O)N1N=C(c2ccc(N3CC(OC)C3)cc2)c2cc(OC)c(OC)cc2CC1C (racemic) [Example 187, (±)-7,8-dimethoxy-1-[4-(3-methoxyazetidin-1-yl)phenyl]-N,4-dimethyl-4,5-dihydro-3H-2,3-benzodiazepine-3-carboxamide]
BRD4 (BD1)
  IC50: 0.08 µM
MOLM-13 cells
  IC50: 0.33 µM
B16F10 cells
  IC50: 0.17 µM

## CNC(=O)N1N=C(c2ccc(-n3nc(-c4ccccn4)cc3C3CC3)cc2)c2cc(OC)ccc2C[C@@H]1C [Example 28, (4S)-1-{4-[5-cyclopropyl-3-(pyridin-2-yl)-1H-pyrazol-1-yl]phenyl}-8-methoxy-N,4-dimethyl-4,5-dihydro-3H-2,3-benzodiazepine-3-carboxamide]
BRD4 (BD1)
  IC50: 0.01 µM
MOLM-13 cells
  IC50: 0.04 µM
MV4-11 cells
  IC50: 0.03 µM
LOX-IMVI cells
  IC50: 0.04 µM
MOLP-8 cells
  IC50: 0.02 µM
KMS-12-PE cells
  IC50: 0.03 µM
LAPC-4 cells
  IC50: 0.02 µM
Caov-3 cells
  IC50: 0.04 µM

## CNC(=O)N1N=C(c2ccc(Cl)cc2)c2cc(N3CCOCC3)ccc2C[C@H]1C [Example 11.2, (4R)-1-(4-Chlorophenyl)-N,4-dimethyl-8-(morpholin-4-yl)-4,5-dihydro-3H-2,3-benzodiazepine-3-carboxamide]
BRD4 (BD1)
  IC50: 2.51 µM
MOLM-13 cells
  IC50: 7.74 µM
MDA-MB-231 cells
  IC50: 10 µM

## CNC(=O)N1N=C(c2ccc(N3CCC(C)(O)CC3)cc2)c2cc(OC)c(OC)cc2CC1C (racemic) [Example 188, (±)-1-[4-(4-hydroxy-4-methylpiperidin-1-yl)phenyl]-7,8-dimethoxy-N,4-dimethyl-4,5-dihydro-3H-2,3-benzodiazepine-3-carboxamide]
BRD4 (BD1)
  IC50: 0.05 µM
MOLM-13 cells
  IC50: 0.2 µM
B16F10 cells
  IC50: 0.1 µM

## CNC(=O)N1N=C(c2ccc(N3CC(F)(F)C3)cc2)c2cc(OC)c(OC)cc2CC1C (racemic) [Example 181, (±)-1-[4-(3,3-difluoroazetidin-1-yl)phenyl]-7,8-dimethoxy-N,4-dimethyl-4,5-dihydro-3H-2,3-benzodiazepine-3-carboxamide]
BRD4 (BD1)
  IC50: 0.07 µM
MOLM-13 cells
  IC50: 0.3 µM
B16F10 cells
  IC50: 0.17 µM

## CNC(=O)C1CCN(c2ccc(C3=NN(C(=O)NC)C(C)Cc4cc(OC)c(OC)cc43)cc2)CC1 (racemic) [Example 189, (±)-7,8-dimethoxy-N,4-dimethyl-1-{4-[4-(methylcarbamoyl)piperidin-1-yl]phenyl}-4,5-dihydro-3H-2,3-benzodiazepine-3-carboxamide]
BRD4 (BD1)
  IC50: 0.06 µM
MOLM-13 cells
  IC50: 0.44 µM
B16F10 cells
  IC50: 0.21 µM
